Earlier results as cited in patent US9402907B2, “Pharmaceutical composition containing diamine derivative” (DAIICHI SANKYO COMPANY, LIMITED, priority 2011, dated 2016).
Read-outs that look alike come from different tables or passages of the source.

solubility (aqueous solution having a pH in the neutral region (e.g., a neutral buffer)): reduced solubility
solubility (strongly acidic aqueous solution): favorable solubility
Compound: CN1CCc2nc(C(=O)N[C@@H]3C[C@@H](C(=O)N(C)C)CC[C@@H]3NC(=O)C(=O)Nc3ccc(Cl)cn3)sc2C1 [Compound I, N^1-(5-chloropyridin-2-yl)-N^2-((1S,2R,4S)-4-[(dimethylamino)carbonyl]-2-{[(5-methyl-4,5,6,7-tetrahydrothiazolo[5,4-c]pyridin-2-yl)carbonyl]amino}cyclohexyl)ethanediamide]
